Source: US12559449B2, “Aromatic ring or heteroaromatic ring derivatives, preparation method therefor and use thereof” (ZHEJIANG HISUN PHARMACEUTICAL CO., LTD., priority 2019, dated 2026)
Read-outs that look alike come from different tables or passages of the source.

What was measured:
human AT2R = biological target: T1, human AT2R (Homo sapiens, UniProt P50052); assay: Antagonistic activity on the binding of human AT2R ligand (Tag-lite HTRF ligand binding, Tb-labeled-AT2R cells); details: red agonist fluorescent ligand, 1 hour room temperature
T1 construct: Tb (terbium) label on the receptor; expressed in transfected cells
T1 sequence (P50052 1-363): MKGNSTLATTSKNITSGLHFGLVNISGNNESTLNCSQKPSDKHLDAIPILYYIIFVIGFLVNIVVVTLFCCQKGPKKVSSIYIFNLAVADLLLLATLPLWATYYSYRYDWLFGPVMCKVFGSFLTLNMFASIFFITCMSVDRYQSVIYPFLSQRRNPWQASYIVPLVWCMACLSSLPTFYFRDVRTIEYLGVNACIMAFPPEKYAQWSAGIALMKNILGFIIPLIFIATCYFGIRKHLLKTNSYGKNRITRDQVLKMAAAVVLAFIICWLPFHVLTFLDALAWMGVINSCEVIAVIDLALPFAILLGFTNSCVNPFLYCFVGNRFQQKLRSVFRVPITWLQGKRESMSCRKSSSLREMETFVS
Experimental: Test Example 1 Test of the Antagonistic Activity of the Compound of the Present Disclosure on the Binding of Human AT2R Ligand
Angiotensin II Type 2 Receptor (AT2R) is involved in neuron differentiation and regeneration, cell proliferation and angiogenesis, and maintenance of bone mass. […] The following method uses the AT2 ligand binding test to study the degree of antagonism of the compounds of the present disclosure to AT2R.
2. Reagent Preparation • (1) 10 mM of angiotensin II human: 10 mg of Angiotensin II human (purity 99.09%) was dissolved in 0.947 mL of deionized water, aliquoted and stored at −80° C.; • (2) Preparation of compound stock solution
3. […] 4. Experimental Results

AT1R = biological target: T2, AT1R (Homo sapiens, UniProt P30556); assay: Antagonistic activity on AT1R, same method with Tb-labeled-AT1R cells; format: binding
T2 construct: Tb (terbium) label on the receptor; expressed in transfected cells
T2 sequence (P30556 1-359): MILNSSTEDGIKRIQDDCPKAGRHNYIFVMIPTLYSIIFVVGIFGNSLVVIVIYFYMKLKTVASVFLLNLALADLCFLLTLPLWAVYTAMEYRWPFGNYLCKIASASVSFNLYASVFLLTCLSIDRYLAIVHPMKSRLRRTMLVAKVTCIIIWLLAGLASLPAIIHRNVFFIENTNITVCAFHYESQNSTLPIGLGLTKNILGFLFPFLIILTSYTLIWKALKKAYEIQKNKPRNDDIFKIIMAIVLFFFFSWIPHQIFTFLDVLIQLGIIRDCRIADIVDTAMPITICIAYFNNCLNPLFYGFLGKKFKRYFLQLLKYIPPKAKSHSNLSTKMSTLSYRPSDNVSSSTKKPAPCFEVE

[1] = Metabolic stability in rat liver microsomes; format: in vitro ADME; details: pH 7.4; rat liver microsomes 0.5 mg/mL, 1 μM compound, NADPH 1 mM, 0-60 min; read-out: half-life/(T1/2, min)
Experimental: Test Example 2. Study on the Metabolic Stability of the Compounds of the Present Disclosure in Rat Liver Microsomes
The purpose of this experimental study is to study the metabolic stability of the compounds of the present disclosure in rat liver microsomes.
The test compounds were co-incubated with rat liver microsomes, and the coenzyme NADPH was added to initiate the reaction. At 0, 5, 15, 30, and 60 minutes, 20 μL of incubation solution was taken out and transferred to 200 μL of acetonitrile containing internal standard to stop the reaction. After protein precipitation, it was centrifuged at 3,700 rpm for 10 minutes. The supernatant was taken and analyzed by LC-MS/MS method after being diluted at 1:1 with water. According to the elimination half-life of the test compound in the incubation system, the in vitro clearance rate was calculated. Midazolam was used as the internal reference compound and incubated for 2 copies in parallel.
The ratio of analyte/internal standard peak area (Aanalyte/AIS) was obtained from the instrument, and the remaining percentage (% Control) was calculated as the ratio of Aanalyte/AIS in the non-zero time point sample to the zero time point sample. Ln (% Control) versus incubation time was plotted and subjected to a linear fitting. The clearance constant (k, min-) and clearance half-life (T1/2, min) of the test compounds were calculated by the following equations.
[formula] 4. Experimental Results

[2] = Pharmacokinetics in SD rats, intravenous injection or intragastric administration; format: in vivo; details: for half-life / MRT / bioavailability / Cmax: male, Sprague-Dawley, rat, plasma; for half-life: read-out: half-life T1/2 (converted); for MRT: read-out: residence time MRT; for bioavailability: read-out: bioavailability F; for Cmax: read-out: drug concentration in blood, Cmax
Description: Test Example 3. Study on Oral Pharmacokinetics of the Compounds of the Present Disclosure in SD Rats
SD rats were taken as the test animals. The LC/MS/MS method was used to determine the intravenous injection or intragastric administration of the compounds of the present disclosure in rats, and to determine the drug concentration in plasma at different time points to study the pharmacokinetic characteristics of the compounds of the present disclosure in rats.
Experimental drugs: Olodanrigan, compounds 12, 14, 15 and 16 of the present disclosure;
Animals: 30 healthy adult Sprague Dawley (SD) male rats, purchased from Weitong Lihua Experimental Animal Technology Co. Ltd., production license number: 11400700271077.
An appropriate amount of samples were weighed, and added with DMA, solutol HS 15 (30%, w/v) and normal saline respectively, and then subjected to ultrasound and filtered through PTFE membrane to make a 0.2 mg/mL solution.
An appropriate amount of samples were weighed, added with 0.5% sodium carboxymethyl cellulose (CMC-Na) (containing 0.5% Tween 80), and ultrasonically prepared into a 1 mg/mL suspension. […]
About 0.2 mL of blood was collected from the jugular vein before administration and at 0.083 hours, 0.25 hours, 0.5 hours, 1 hour, 2 hours, 4 hours, 8 hours, 12 hours, and 24 hours after administration, and heparin sodium was used for anticoagulation. The blood samples were collected on ice and centrifuged to separate the plasma (centrifugation conditions: 1500 g, 10 minutes). The collected plasma was stored at −40 to −20° C. before analysis.
10 μL of plasma sample was taken and added with 400 μL of acetonitrile (comprising internal standard working solution which contained verapamil 5 ng/mL and glibenclamide 50 ng/mL). It was vortexed for 10 minutes, centrifuge at 3700 rpm for 10 minutes. 70 μL of the supernatant was taken and added with 70 μL of water, and vortexed for 10 minutes. 2 μL of the mixed solution was taken and injected into LC-MS/MS for sample analysis.

[3] = oral (3 mg/kg) versus injection (1 mg/kg)
[4] = 3 mg/kg, oral (mg/kg), dose not given
[5] = oral (mg/kg), dose figure not given, versus injection (1 mg/kg)

SMILES	IC50 (human AT2R) [nM]	IC50 (AT1R) [µM]	half-life at 1 μM [1] [min]	area under curve AUO0-∞ ([2]; injection (1 mg/kg)) [ng·h/mL]	half-life ([2]; iv, injection (1 mg/kg)) [h]	MRT ([2]; iv, injection (1 mg/kg)) [h]	bioavailability [2, 3] [%]	Cmax ([2]; oral (3 mg/kg)) [ng/mL]	half-life ([2]; oral (3 mg/kg)) [h]	MRT ([2]; oral (3 mg/kg)) [h]	area under curve AUO0-∞ ([2]; oral (3 mg/kg)) [ng·h/mL]	Cmax [2, 4] [ng/mL]	half-life [2, 4] [h]	MRT [2, 4] [h]	bioavailability [2, 5] [%]	area under curve AUO0-∞ ([2]; oral (mg/kg), dose not given) [ng·h/mL]
CN(C(=O)C(c1ccccc1)c1ccccc1)c1ccc(N2CCCOc3ccc(F)cc32)cc1C(=O)O [Compound 4, 5-(7-fluoro-3,4-dihydrobenzo[b][1,4]oxazepine-5(2H)-yl)-2-(N-methyl-2,2-diphenylacetamido)benzoic acid]	37	> 10	185													
CN(C(=O)C(c1ccccc1)c1ccccc1)c1cnc(N2CCCOc3ccc(F)cc32)cc1C(=O)O [Compound 5, 2-(7-fluoro-3,4-dihydrobenzo[b][1,4]oxazepine-5(2H)-yl)-5-(N-methyl-2,2-diphenylacetamido)isonicotinic acid]	10	> 10														
CN(C(=O)C(c1ccccc1)c1ccccc1)c1cnc(N2CCCOc3cc(F)c(F)cc32)cc1C(=O)O [Compound 6, 2-(7,8-difluoro-3,4-dihydrobenzo[b][1,4]oxazepine-5(2H)-yl)-5-(N-methyl-2,2-diphenylacetamido)isonicotinic acid]	26	> 10														
CN(C(=O)C(c1ccccc1)c1ccccc1)c1ccc(N2CCCOc3ccc(F)cc32)nc1C(=O)O [Compound 8, 6-(7-fluoro-3,4-dihydrobenzo[b][1,4]oxazepine-5(2H)-yl)-3-(N-methyl-2,2-diphenylacetamido)picolinic acid]	28	> 10														
O=C(O)c1cc(N2CCCOc3ccc(F)cc32)ncc1-c1nc2ccccc2o1 [Compound 12, 5-(benzo[d]oxazol-2-yl)-2-(7-fluoro-3,4-dihydrobenzo[b][1,4]oxazepine-5(2H)-yl)isonicotinic acid]			288	16200 ± 3530	8.1 ± 2.1	7.3 ± 1.5	83.1	8650 ± 6020	4.7 ± 0.3	6.1 ± 0.5	40400 ± 14272					
O=C(O)c1cc(N2CCCOc3ccc(F)cc32)ncc1-c1nc2cc(F)ccc2o1 [Compound 14, 2-(7-fluoro-3,4-dihydrobenzo[b][1,4]oxazepine-5(2H)-yl)-5-(5-fluorobenzo[d]oxazol-2-yl)isonicotinic acid]			600	13800 ± 1370	4.7 ± 0.4	4.5 ± 0.2	105	14300 ± 5130	3.6 ± 0.2	4.7 ± 0.3	43400 ± 11173					
O=C(O)c1cc(N2CCCOc3ccc(F)cc32)ncc1-c1nc2ccc(F)cc2o1 [Compound 15, 2-(7-fluoro-3,4-dihydrobenzo[b][1,4]oxazepine-5(2H)-yl)-5-(6-fluorobenzo[d]oxazol-2-yl)isonicotinic acid]			160	12100 ± 751	4.5 ± 0.4	4.5 ± 0.4	89.9	7050 ± 2640	4.2 ± 0.4	5.2 ± 0.4	32400 ± 6514					
N#Cc1ccc2nc(-c3cnc(N4CCCOc5ccc(F)cc54)cc3C(=O)O)oc2c1 [Compound 16, 5-(6-cyanobenzo[d]oxazol-2-yl)-2-(7-fluoro-3,4-dihydrobenzo[b][1,4]oxazepine-5(2H)-yl)isonicotinic acid]			598	20800 ± 1740	3.3 ± 0.2	3.2 ± 0.3						5250 ± 315	3.7 ± 0.4	5.5 ± 0.4	41.3	25800 ± 6100
COc1ccc2c(c1OCc1ccccc1)C[C@@H](C(=O)O)N(C(=O)C(c1ccccc1)c1ccccc1)C2 [olodanrigan, reference compound]		> 10	96.3	1230 ± 96	1.6 ± 0.3	0.92 ± 0.16						470 ± 197	1.5 ± 0.3	2.6 ± 1	12.1	1483 ± 715
